Patent US12247223B2, “Human liver-like three-dimensional structure, method for evaluating hepatotoxicity and human liver-like complex” (CYFUSE BIOMEDICAL K.K., priority 2019, dated 2025)

Tests used:
[1] = tested on: human liver-like three-dimensional construct A′; conditions: 10 μmol/l
Description: (§1) A DMSO solution of phenytoin was prepared. The obtained drug-containing DMSO solution was added to the culture medium of the human liver-like three-dimensional construct A′ fabricated in Experimental example 3′ such that the concentration of the drug in the medium was 10 μmol/l. The medium was sampled up to 6 days following the drug addition, and the metabolic products in the medium were subjected to separation and structural analysis by a LC/MS/MS method. The abbreviations of the metabolites stand for the following constructs.
as §1, with “Torcetrapib” for “phenytoin”, “method.” for “method. The abbreviations of the metabolites stand for the following constructs.”

[2] = tested on: human liver-like three-dimensional construct A; assay: Assessment of hepatotoxicity: albumin concentration in the medium of the construct; type: cell-based; conditions: drug 5-1000 μmol/l in medium, up to 24 days
Description: (§2) A DMSO solution of trovafloxacin, a drug that is known to show hepatotoxicity when administered to a human, was prepared. […] Changes in the albumin concentrations in the media up to 24 days following addition of the drug, and the levels of ATP contained in the constructs at the end of the experiment were measured using CellTiter-Glo 3D substrate. Furthermore, tissue sections of the constructs were prepared to obtain images of HE staining and immunostaining for albumin.
DMSO solutions of 20 kinds of drugs that were known to show hepatotoxicity upon administration to a human were prepared. […] Changes in the albumin concentrations in the media 7 and 14 days following addition of the drug are shown in FIG. 8, in which data were normalized to the albumin concentration in the medium added with DMSO only (taken as 100%).

[3] = tested on: human liver-like three-dimensional construct A; assay: miR-122-5p in exosomes released from the construct, digital PCR; type: cell-based; conditions: exosomes from culture medium of Experimental example 5
Description: as §2
(§3) The culture medium of Experimental example 5 was centrifuged at 4° C. and 2,000×g for 20 minutes, followed by centrifugation of the collected supernatant at 15,000×g for 30 minutes. To 2.2 mL of each collected sample solution, 1.1 mL of ExoCap Ultracentrifugation/Storage Booster (registered trademark) and 7.7 mL of ultrapure water were added. […]
(§4) The number and the particle-size distribution of the exosome particles were measured using qNano (nanoparticle multi-analyzer). In addition, expression of CD9 in the collected exosomes was confirmed by Western blotting. miRNAs contained in a sample extracted from the exosomes using a RNA extraction kit were measured by digital PCR. Furthermore, microRNAs contained in the exosomes were taken out and the amounts of miR-122, miR-192 and miR-1 were quantified by a quantitative PCR method. […]

[4] = tested on: monolayer culture system; assay: Albumin concentration in monolayer culture system (standard of comparison); type: cell-based; conditions: monolayer culture as standard of comparison (details omitted)
[5] = tested on: human liver-like three-dimensional construct A; assay: Number and particle-size distribution of exosome particles (qNano); type: cell-based; conditions: three days after drug addition
Description: as §3, with “added. The resultant was homogeneously stirred and subjected to ultracentrifugation protocol (35,000 rpm, 70 minutes,4° C.).” for “added.”
as §4
An increase in the particle number concentration of the exosomes contained in the media was observed only three days after the drug addition. Furthermore, miR-122 was detected in the collected exosomes.

Row | miR-122 in the collected exosomes [3] | albumin concentration, monolayer culture system [4] | particle number concentration of the exosomes in the media [5] | Structure (SMILES) | metabolic products separated and detected by LC [1] | albumin concentration in the medium [2]
1 |  |  |  | CCOC(=O)N1c2ccc(C(F)(F)F)cc2[C@@H](N(Cc2cc(C(F)(F)F)cc(C(F)(F)F)c2)C(=O)OC)C[C@H]1CC [Torcetrapib] | Two kinds of metabolic products M2 and M5 | 
2 | detected | no decrease | increase | N[C@@H]1[C@H]2CN(c3nc4c(cc3F)c(=O)c(C(=O)O)cn4-c3ccc(F)cc3F)C[C@@H]12 [Trovafloxacin, trovafloxacin] |  | drug concentration-dependent decrease
